Experimental data reported in patent publication US20110165115A1, “SYNERGISTIC ATTRACTANTS FOR PESTIFEROUS SOCIAL INSECTS” (STERLING INTERNATIONAL INC., priority 2010, published 2011).

Legend:
[1] = tested on: D. maculata; experiment: Field trapping Experiment 3, different doses of DMNT alone; format: in vivo, Dolichovespula maculata
Protocol: (§1) Three field trapping experiments were carried out during late July to early August 2009, in residential and woody areas around Spokane, Wash., USA, using the newly marketed Rescue® W•H•Y traps (www.rescue.com). As used herein, the W•H•Y trap is a trap in accordance with the description of United States Patent Application Publication No. 2009/0151228. The W•H•Y trap has a top chamber and a bottom chamber. The top chamber is baited with two attractants—one of which is a solid contained in a vial (2-methyl-1-butanol) and the other a liquid mixed with water (acetic acid), herein referred to as the W•H•Y top attractant. The bottom chamber is baited with a liquid attractant (heptyl butyrate) poured onto a cotton pad, herein referred to as the W•H•Y bottom attractant. Separation of the top and bottom attractants (otherwise antagonistic to each other when released from the same chamber) in two chambers was a design feature of this trap and creates two focal attraction sources from one trap for different species of wasps, hornets, and yellowjackets. Traps were hung 1.5-2.0 m above the ground on either the fence or tree branches ca. 5 m apart within each trap line. For each trapping experiment, six sets of traps were deployed with their initial trap positions within each set being randomized. To minimize positional effects and obtain more replications, wasp collections and trap re-randomization were carried out when ≧10-20 wasps were caught in the best trap. Each replicate lasted several days depending on wasp flight activity. Captured wasps were removed from the traps and kept in the zip-bags before taking back to the laboratory for recording of the species, gender status, and catch.
(§2) Experiment 1 (Jul. 22-30, 2009) tested ten synthetic HIPV candidates [(E)-2-hexenal, (Z)-3-hexen-1-ol, (Z)-3-hexenyl acetate, cis-ocimene, linalool, methyl salicylate, geranyl acetate, trans-β-caryophyllene, trans-β-farnesene and (E)-4,8-dimethyl-1,3,7-nonatriene], including several paper wasp EAD-active compounds (see FIG. 2 for details), to determine their potential synergistic effect on the Rescue® W•H•Y trap attractants to paper wasps, yellowjackets, and hornets. Experiment 2 (Aug. 5-13, 2009) tested behavioral responses of the paper wasps and yellowjackets to the Rescue® W•H•Y trap attractants (top attractants only) and its combination with (E)-4,8-dimethyl-1,3,7-nonatriene, one of the EAD-active and behaviorally significant HIPVs, in a dose-response fashion. Experiment 3 (Aug. 5-13, 2009) was conducted to determine the potential behavioral activity of different doses of (E)-4,8-dimethyl-1,3,7-nonatriene alone. The individual (or different doses) HIPVs were loaded into either polyethylene bags or centrifuge tube type of dispensers, and released from the top of the W•H•Y trap chamber. W•H•Y trap attractants (both top and bottom or top only) alone and water (top chamber only) were included in the test as positive and blank controls, respectively. The dispenser types, loading and release rates of the tested semiochemicals are described in Tables 1, 2 and 3.
(§3) Trap catch data were converted to proportion (P) of total captured wasps within each replicate. Data were then transformed by arcsin√P to meet the assumptions of normality and homogeneity of variances for ANOVA. Means were compared by ANOVA followed by the Ryan-Einot-Gabriel-Welsh (REGW) multiple Q test (SPSS 16.0 for Windows) at α=0.05.

[2] = tested on: paper wasps and yellowjackets; experiment: Field trapping bioassays, synergism with AA/2MB (summary); format: in vivo; conditions: at the doses tested
Protocol: as §1
(§4) Experiment 3 (Aug. 5-13, 2009) was conducted to determine the potential behavioral activity of different doses of (E)-4,8-dimethyl-1,3,7-nonatriene alone. The individual (or different doses) HIPVs were loaded into either polyethylene bags or centrifuge tube type of dispensers, and released from the top of the W•H•Y trap chamber. […]

[3] = tested on: yellowjackets; experiment: Field trapping Experiment 1, top chamber catches; format: in vivo; conditions: Exp 1; HIPV combined with W•H•Y attractant (acetic acid and 2-methyl-1-butanol) in the top chamber
Protocol: as §1, §4

[4] = tested on: P. aurifer; experiment: Field trapping Experiment 2, DMNT dose-response with W•H•Y top attractants; format: in vivo, Polistes aurifer; conditions: Exp 2, DMNT added to WHY top attractant
Protocol: as §1
(§5) Experiment 3 (Aug. 5-13, 2009) was conducted to determine the potential behavioral activity of different doses of (E)-4,8-dimethyl-1,3,7-nonatriene alone. The individual (or different doses) HIPVs were loaded into either polyethylene bags or centrifuge tube type of dispensers, and released from the top of the W•H•Y trap chamber. W•H•Y trap attractants (both top and bottom or top only) alone and water (top chamber only) were included in the test as positive and blank controls, respectively. The dispenser types, loading and release rates of the tested semiochemicals are described in Tables 1, 2 and 3.
as §3

[5] = tested on: P. dominulus; experiment: as above; format: in vivo, Polistes dominulus; conditions: Exp 2, DMNT added to WHY top attractant
Protocol: as §1, §5, §3

[6] = tested on: P. dominulus; experiment: Field trapping Experiment 3, different doses of DMNT alone; format: in vivo, Polistes dominulus
Protocol: as §1, §5, §3

[7] = tested on: D. arenaria; experiment: as above; format: in vivo, Dolichovespula arenaria
Protocol: as §1, §2, §3

[8] = tested on: D. maculata; experiment: Field trapping Experiment 2, DMNT dose-response with W•H•Y top attractants; format: in vivo, Dolichovespula maculata; conditions: Exp 2, DMNT added to WHY top attractant
Protocol: as §1, §2, §3

[9] = tested on: V. pensylvanica; experiment: as above; format: in vivo, Vespula pensylvanica; conditions: Exp 2, DMNT added to WHY top attractant
Protocol: as §1, §5, §3

[10] = tested on: V. atropilosa; experiment: Field trapping Experiment 3, different doses of DMNT alone; format: in vivo, Vespula atropilosa
Protocol: as §1, §5, §3

[11] = tested on: V. germanica; experiment: as above; format: in vivo, Vespula germanica
Protocol: as §1, §5, §3

[12] = tested on: V. vulgaris; experiment: as above; format: in vivo, Vespula vulgaris
Protocol: as §1, §5, §3

[13] = Exp 3, release rate 0.25, hole 0.5 mm, loading 15 μL
[14] = Exp 3, release rate 0.5, hole 1 mm, loading 30 μL
[15] = Exp 3, release rate 1, hole 2 mm, loading 75 μL
[16] = Exp 3, release rate 1.5, hole 3 mm, loading 175 μL
[17] = Exp 3, release rate 2, hole 5.5 mm, loading 325 μL
[18] = release rate 0.25, hole 0.5 mm, loading 15 μL
[19] = release rate 0.5, hole 1 mm, loading 30 μL
[20] = release rate 1, hole 2 mm, loading 75 μL
[21] = release rate 1.5, hole 3 mm, loading 175 μL
[22] = release rate 2, hole 5.5 mm, loading 325 μL

SMILES: C=C/C=C(\C)CCC=C(C)C [(E)-4,8-dimethyl-1,3,7-nonatriene]
- Total Yellowjackets Caught D. maculata [1, 13]: 0
- Total Yellowjackets Caught D. maculata [1, 14]: 0
- Total Yellowjackets Caught D. maculata [1, 15]: 0
- Total Yellowjackets Caught D. maculata [1, 16]: 0
- Total Yellowjackets Caught D. maculata [1, 17]: 0
- synergism of attraction to mixture of acetic acid and 2-methyl-1-butanol [2]: synergize
- synergism of attraction to mixture of acetic acid and 2-methyl-1-butanol ([2]; listed as (E)-4,8-dimenthyl-1,3,7-nonatriene): significantly synergize
- effect on trap catches of yellowjackets in the top chambers [3]: significantly increased
- Total Paper Wasps Caught P. aurifer [4, 18]: 0
- Total Paper Wasps Caught P. aurifer [4, 19]: 0
- Total Paper Wasps Caught P. aurifer [4, 20]: 0
- Total Paper Wasps Caught P. aurifer [4, 21]: 0
- Total Paper Wasps Caught P. aurifer [4, 22]: 0
- Total Paper Wasps Caught P. dominulus [5, 18]: 7
- Total Paper Wasps Caught P. dominulus [5, 19]: 2
- Total Paper Wasps Caught P. dominulus [5, 20]: 13
- Total Paper Wasps Caught P. dominulus [5, 21]: 8
- Total Paper Wasps Caught P. dominulus [5, 22]: 5
- Total Paper Wasps Caught P. dominulus [6, 13]: 7
- Total Paper Wasps Caught P. dominulus [6, 14]: 6
- Total Paper Wasps Caught P. dominulus [6, 15]: 4
- Total Paper Wasps Caught P. dominulus [6, 16]: 17
- Total Paper Wasps Caught P. dominulus [6, 17]: 10
- Total Yellowjackets Caught D. arenaria [7, 13]: 0
- Total Yellowjackets Caught D. arenaria [7, 14]: 0
- Total Yellowjackets Caught D. arenaria [7, 15]: 0
- Total Yellowjackets Caught D. arenaria [7, 16]: 0
- Total Yellowjackets Caught D. arenaria [7, 17]: 0
- Total Yellowjackets Caught D. maculata [8, 18]: 0
- Total Yellowjackets Caught D. maculata [8, 19]: 1
- Total Yellowjackets Caught D. maculata [8, 20]: 1
- Total Yellowjackets Caught D. maculata [8, 21]: 0
- Total Yellowjackets Caught D. maculata [8, 22]: 0
- Total Yellowjackets Caught V. pensylvanica [9, 18]: 68
- Total Yellowjackets Caught V. pensylvanica [9, 19]: 90
- Total Yellowjackets Caught V. pensylvanica [9, 20]: 47
- Total Yellowjackets Caught V. pensylvanica [9, 21]: 77
- Total Yellowjackets Caught V. pensylvanica [9, 22]: 46
- Total Yellowjackets Caught V. atropilosa [10, 13]: 2
- Total Yellowjackets Caught V. atropilosa [10, 14]: 1
- Total Yellowjackets Caught V. atropilosa [10, 15]: 0
- Total Yellowjackets Caught V. atropilosa [10, 16]: 0
- Total Yellowjackets Caught V. atropilosa [10, 17]: 1
- Total Yellowjackets Caught V. germanica [11, 13]: 0
- Total Yellowjackets Caught V. germanica [11, 14]: 0
- Total Yellowjackets Caught V. germanica [11, 15]: 0
- Total Yellowjackets Caught V. germanica [11, 16]: 0
- Total Yellowjackets Caught V. germanica [11, 17]: 0
- Total Yellowjackets Caught V. vulgaris [12, 13]: 4
- Total Yellowjackets Caught V. vulgaris [12, 14]: 6
- Total Yellowjackets Caught V. vulgaris [12, 15]: 4
- Total Yellowjackets Caught V. vulgaris [12, 16]: 2
- Total Yellowjackets Caught V. vulgaris [12, 17]: 5
